Laboratory results as given in paper PMC4457528, “Identification of Novel Small Molecule Inhibitors of Oncogenic RET Kinase” (PLoS ONE, 2015).
Read-outs that look alike come from different tables or passages of the source.

Experiments:
Test in all cases: KinomeScan kinase panel, single concentration 10 µM
Format in all cases: binding
KinomeScan kinase panel [1] = target: T1, KinomeScan kinase panel (Homo sapiens, UniProt Q00536); conditions: PCTK1, 10 µM; read-out: score (%)
T1 construct: purchased DiscoveRx (KinomeScan)

KinomeScan kinase panel [2] = target: T2, KinomeScan kinase panel (Homo sapiens, UniProt P37023); conditions: ACVRL1, 10 µM; read-out: score (%)
T2 construct: purchased DiscoveRx (KinomeScan)

KinomeScan kinase panel [3] = target: T3, KinomeScan kinase panel (Homo sapiens, UniProt O14730); conditions: read-out: score (%)
T3 construct: purchased DiscoveRx (KinomeScan)
T3 sequence (O14730 1-519): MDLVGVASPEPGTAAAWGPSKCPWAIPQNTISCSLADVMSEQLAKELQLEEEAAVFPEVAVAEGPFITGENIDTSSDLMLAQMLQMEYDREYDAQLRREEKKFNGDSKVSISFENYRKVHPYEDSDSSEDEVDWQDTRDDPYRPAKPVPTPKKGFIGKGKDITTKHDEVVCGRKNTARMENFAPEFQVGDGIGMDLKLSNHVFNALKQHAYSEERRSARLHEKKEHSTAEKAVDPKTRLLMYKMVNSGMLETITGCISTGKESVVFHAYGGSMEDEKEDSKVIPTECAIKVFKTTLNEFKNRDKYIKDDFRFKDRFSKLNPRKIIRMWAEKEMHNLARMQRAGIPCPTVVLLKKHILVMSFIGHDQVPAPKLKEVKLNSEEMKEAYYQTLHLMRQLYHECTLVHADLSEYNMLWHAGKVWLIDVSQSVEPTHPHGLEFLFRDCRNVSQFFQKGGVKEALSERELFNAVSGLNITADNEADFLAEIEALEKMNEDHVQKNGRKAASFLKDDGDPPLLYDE

KinomeScan kinase panel [4] = target: T4, KinomeScan kinase panel (Homo sapiens, UniProt P00519, E255K); conditions: 10 µM, read-out: score (%)
T4 construct: purchased DiscoveRx (KinomeScan)

KinomeScan kinase panel [5] = target: T5, KinomeScan kinase panel (Homo sapiens, UniProt Q9UBE8); conditions: NLK, 10 µM; read-out: score (%)
T5 construct: purchased DiscoveRx (KinomeScan)
T5 sequence (Q9UBE8 1-527): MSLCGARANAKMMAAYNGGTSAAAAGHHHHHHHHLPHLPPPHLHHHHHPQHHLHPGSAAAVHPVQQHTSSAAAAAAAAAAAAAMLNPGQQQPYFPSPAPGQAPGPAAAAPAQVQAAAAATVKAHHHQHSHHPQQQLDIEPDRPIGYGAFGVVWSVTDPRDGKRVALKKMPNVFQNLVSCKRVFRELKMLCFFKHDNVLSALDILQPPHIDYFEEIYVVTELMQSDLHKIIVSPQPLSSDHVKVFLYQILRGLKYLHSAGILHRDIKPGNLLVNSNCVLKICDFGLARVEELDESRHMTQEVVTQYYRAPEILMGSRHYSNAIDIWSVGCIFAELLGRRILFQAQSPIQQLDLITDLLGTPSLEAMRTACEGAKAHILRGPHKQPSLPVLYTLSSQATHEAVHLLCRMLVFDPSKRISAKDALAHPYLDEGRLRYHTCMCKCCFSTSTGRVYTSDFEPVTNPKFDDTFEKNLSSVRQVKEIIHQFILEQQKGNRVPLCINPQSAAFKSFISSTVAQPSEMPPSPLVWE

KinomeScan kinase panel [6] = target: T6, KinomeScan kinase panel (Homo sapiens, UniProt O94768); conditions: DRAK2, 10 µM; read-out: score (%)
T6 construct: purchased DiscoveRx (KinomeScan)
T6 sequence (O94768 1-372): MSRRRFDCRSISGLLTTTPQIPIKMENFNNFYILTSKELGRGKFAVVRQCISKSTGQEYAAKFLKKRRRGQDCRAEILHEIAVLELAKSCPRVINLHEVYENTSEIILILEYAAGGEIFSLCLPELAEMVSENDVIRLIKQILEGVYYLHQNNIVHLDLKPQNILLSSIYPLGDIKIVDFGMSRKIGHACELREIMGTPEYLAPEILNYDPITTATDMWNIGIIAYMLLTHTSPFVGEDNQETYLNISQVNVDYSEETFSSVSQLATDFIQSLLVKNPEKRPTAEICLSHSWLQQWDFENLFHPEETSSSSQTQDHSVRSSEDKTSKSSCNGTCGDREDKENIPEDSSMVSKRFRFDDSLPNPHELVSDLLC

KinomeScan kinase panel [7] = target: T7, KinomeScan kinase panel (Homo sapiens, UniProt Q2M2I8); conditions: AAK1, 10 µM; read-out: score (%)
T7 construct: purchased DiscoveRx (KinomeScan)

KinomeScan kinase panel [8] = target: T8, KinomeScan kinase panel (Homo sapiens, UniProt Q9UIK4); conditions: DAPK2, 10 µM; read-out: score (%)
T8 construct: purchased DiscoveRx (KinomeScan)

KinomeScan kinase panel [9] = target: T9, KinomeScan kinase panel (Homo sapiens, UniProt P51813); conditions: BMX, 10 µM; read-out: score (%)
T9 construct: purchased DiscoveRx (KinomeScan)
T9 sequence (P51813 1-675): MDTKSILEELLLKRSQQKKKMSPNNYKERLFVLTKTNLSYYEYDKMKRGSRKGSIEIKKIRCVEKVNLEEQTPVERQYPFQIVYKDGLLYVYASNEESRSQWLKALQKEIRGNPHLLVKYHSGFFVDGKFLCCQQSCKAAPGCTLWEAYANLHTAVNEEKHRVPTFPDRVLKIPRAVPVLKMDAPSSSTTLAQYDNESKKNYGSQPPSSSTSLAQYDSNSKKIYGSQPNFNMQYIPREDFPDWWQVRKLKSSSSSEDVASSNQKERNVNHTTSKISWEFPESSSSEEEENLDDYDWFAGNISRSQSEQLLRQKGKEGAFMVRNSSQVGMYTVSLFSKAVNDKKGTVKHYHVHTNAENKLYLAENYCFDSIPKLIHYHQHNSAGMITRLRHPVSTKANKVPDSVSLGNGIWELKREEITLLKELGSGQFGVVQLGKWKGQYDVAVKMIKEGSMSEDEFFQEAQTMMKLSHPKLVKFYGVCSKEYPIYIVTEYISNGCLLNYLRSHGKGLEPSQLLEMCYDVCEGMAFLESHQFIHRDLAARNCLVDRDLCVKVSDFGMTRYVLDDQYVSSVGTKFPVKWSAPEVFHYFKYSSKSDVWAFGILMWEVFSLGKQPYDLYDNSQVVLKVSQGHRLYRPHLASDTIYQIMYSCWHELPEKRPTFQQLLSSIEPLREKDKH

KinomeScan kinase panel [10] = target: T10, KinomeScan kinase panel (Homo sapiens, UniProt Q04759); conditions: 10 µM, read-out: score (%)
T10 construct: purchased DiscoveRx (KinomeScan)

KinomeScan kinase panel [11] = target: T11, KinomeScan kinase panel (Homo sapiens, UniProt P17612); conditions: PKAC-alpha, 10 µM; read-out: score (%)
T11 construct: purchased DiscoveRx (KinomeScan)

T4 sequence (P00519 whole entry E255K): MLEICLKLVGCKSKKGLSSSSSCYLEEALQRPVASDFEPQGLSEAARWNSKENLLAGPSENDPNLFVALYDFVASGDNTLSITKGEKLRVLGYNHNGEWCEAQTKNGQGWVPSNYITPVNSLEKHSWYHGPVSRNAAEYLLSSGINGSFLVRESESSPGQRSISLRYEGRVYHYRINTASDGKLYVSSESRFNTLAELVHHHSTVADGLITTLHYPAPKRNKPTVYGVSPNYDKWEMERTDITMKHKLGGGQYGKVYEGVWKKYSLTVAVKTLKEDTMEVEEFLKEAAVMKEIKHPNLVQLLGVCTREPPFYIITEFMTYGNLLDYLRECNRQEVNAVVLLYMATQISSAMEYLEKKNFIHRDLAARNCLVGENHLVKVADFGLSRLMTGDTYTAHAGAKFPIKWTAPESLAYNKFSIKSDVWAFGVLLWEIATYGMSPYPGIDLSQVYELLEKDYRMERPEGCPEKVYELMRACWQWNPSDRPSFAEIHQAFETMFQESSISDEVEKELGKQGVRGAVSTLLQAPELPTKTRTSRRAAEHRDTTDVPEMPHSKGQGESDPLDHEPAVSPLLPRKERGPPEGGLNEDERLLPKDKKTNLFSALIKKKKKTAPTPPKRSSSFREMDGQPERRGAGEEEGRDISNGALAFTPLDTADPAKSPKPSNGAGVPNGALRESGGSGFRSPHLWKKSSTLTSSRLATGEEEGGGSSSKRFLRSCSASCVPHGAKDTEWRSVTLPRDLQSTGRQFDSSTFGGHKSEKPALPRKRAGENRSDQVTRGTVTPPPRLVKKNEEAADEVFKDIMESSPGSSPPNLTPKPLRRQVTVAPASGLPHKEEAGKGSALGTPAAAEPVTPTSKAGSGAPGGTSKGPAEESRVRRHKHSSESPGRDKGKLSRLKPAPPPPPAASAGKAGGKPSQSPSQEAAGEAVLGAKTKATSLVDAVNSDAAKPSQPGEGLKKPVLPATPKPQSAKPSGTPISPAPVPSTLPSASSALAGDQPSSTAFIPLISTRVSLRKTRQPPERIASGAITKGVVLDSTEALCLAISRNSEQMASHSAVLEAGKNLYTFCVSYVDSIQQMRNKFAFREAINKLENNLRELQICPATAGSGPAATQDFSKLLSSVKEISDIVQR
T1 sequence (Q00536 whole entry): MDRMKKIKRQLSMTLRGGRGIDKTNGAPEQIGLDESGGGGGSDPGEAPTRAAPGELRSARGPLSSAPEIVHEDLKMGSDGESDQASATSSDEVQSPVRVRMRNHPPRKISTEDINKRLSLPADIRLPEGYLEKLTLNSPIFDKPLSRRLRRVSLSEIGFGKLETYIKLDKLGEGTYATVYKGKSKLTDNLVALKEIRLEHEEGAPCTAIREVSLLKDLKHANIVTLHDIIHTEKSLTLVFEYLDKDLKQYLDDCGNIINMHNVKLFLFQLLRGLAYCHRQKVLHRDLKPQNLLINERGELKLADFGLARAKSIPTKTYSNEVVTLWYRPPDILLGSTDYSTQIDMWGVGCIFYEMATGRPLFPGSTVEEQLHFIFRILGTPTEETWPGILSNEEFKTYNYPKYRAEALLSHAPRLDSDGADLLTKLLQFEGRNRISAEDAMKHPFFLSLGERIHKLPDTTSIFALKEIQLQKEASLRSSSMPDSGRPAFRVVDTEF
T2 sequence (P37023 22-503): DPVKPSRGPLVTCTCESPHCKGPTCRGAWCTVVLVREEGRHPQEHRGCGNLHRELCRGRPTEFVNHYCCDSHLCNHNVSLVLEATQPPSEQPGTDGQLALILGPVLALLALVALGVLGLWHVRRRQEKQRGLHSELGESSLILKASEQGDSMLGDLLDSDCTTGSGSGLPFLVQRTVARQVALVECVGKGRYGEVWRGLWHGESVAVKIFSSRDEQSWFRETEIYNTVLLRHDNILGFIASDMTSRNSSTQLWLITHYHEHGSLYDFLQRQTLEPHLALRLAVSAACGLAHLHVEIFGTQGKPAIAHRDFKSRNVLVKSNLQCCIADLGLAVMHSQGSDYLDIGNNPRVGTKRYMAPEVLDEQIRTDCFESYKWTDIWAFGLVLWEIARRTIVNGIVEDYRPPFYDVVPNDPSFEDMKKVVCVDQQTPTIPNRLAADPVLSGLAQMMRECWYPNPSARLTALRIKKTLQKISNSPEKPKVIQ
T7 sequence (Q2M2I8 whole entry): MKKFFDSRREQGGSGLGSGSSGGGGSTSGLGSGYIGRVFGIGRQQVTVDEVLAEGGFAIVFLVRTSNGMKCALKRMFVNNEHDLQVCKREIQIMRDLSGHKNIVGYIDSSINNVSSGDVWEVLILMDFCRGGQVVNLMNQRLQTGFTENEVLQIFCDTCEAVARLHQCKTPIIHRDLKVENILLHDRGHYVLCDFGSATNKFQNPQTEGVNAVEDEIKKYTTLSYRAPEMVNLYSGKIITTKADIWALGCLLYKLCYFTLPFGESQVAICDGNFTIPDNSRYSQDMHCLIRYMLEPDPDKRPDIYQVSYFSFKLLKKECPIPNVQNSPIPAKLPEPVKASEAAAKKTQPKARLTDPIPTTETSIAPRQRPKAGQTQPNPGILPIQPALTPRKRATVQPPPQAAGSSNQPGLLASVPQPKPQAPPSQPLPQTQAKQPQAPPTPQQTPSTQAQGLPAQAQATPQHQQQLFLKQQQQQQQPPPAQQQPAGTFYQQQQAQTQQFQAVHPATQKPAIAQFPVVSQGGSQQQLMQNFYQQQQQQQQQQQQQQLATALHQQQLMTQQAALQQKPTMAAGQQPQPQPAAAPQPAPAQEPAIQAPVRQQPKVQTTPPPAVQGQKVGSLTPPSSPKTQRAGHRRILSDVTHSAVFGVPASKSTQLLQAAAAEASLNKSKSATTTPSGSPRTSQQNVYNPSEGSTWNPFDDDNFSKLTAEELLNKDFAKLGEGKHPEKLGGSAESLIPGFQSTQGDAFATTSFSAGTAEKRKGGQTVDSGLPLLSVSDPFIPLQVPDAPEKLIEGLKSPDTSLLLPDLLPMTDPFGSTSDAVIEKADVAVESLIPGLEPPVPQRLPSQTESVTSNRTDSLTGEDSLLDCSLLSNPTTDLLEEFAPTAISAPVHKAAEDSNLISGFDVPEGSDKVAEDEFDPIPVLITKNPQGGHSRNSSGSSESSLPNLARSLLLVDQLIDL
T8 sequence (Q9UIK4 whole entry): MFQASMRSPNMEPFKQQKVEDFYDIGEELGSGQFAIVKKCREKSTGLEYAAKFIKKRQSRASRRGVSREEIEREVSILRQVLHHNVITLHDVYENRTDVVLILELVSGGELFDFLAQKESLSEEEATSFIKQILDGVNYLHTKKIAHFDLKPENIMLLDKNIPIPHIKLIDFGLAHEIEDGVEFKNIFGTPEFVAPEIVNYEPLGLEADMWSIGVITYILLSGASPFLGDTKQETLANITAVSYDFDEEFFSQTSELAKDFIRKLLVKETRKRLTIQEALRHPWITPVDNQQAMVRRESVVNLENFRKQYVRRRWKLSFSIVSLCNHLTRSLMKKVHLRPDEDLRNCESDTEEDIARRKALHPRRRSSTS
T10 sequence (Q04759 whole entry): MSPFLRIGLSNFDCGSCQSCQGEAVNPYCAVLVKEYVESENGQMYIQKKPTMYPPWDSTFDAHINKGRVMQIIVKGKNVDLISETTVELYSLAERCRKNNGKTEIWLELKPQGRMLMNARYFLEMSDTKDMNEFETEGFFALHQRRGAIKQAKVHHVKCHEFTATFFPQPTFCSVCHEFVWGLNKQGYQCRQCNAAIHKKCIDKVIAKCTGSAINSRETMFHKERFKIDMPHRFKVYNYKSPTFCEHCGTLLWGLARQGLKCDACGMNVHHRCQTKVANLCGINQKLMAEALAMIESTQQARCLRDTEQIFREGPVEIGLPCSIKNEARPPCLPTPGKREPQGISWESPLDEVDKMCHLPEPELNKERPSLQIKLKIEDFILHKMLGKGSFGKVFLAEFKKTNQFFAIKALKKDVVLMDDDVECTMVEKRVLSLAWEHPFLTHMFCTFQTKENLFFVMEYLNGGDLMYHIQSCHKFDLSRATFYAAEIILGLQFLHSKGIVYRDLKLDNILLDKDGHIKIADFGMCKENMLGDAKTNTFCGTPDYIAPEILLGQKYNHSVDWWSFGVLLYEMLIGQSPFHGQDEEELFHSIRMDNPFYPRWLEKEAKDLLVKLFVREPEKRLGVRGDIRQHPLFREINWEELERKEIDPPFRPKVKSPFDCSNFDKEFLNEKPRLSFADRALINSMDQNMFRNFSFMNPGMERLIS

SMILES | remaining binding at 10 µM (KinomeScan kinase panel [1]) [%] | remaining binding at 10 µM (KinomeScan kinase panel [2]) [%] | remaining binding at 10 µM (KinomeScan kinase panel [3]; RIOK3, 10 µM) [%] | remaining binding at 10 µM (KinomeScan kinase panel [4]; ABL1(E255K)) [%] | remaining binding at 10 µM (KinomeScan kinase panel [5]) [%] | remaining binding at 10 µM (KinomeScan kinase panel [6]) [%] | remaining binding at 10 µM (KinomeScan kinase panel [7]) [%] | remaining binding at 10 µM (KinomeScan kinase panel [8]) [%] | remaining binding at 10 µM (KinomeScan kinase panel [9]) [%] | remaining binding at 10 µM (KinomeScan kinase panel [10]; PRKCQ) [%] | remaining binding at 10 µM (KinomeScan kinase panel [11]) [%] | remaining binding at 10 µM (KinomeScan kinase panel [3]; kinase RIOK3, 10 µM) [%] | remaining binding at 10 µM (KinomeScan kinase panel [4]; ABL1(E255K)-phosphorylated) [%] | remaining binding at 10 µM (KinomeScan kinase panel [10]; kinase PRKCQ) [%]
CCN1CCN(Cc2ccc(NC(=O)c3ccc(C)c(NC(=O)c4cncc(-c5cccs5)c4)c3)cc2C(F)(F)F)CC1 [ALW-II-41-27] | > 30 | > 30 | > 30 | 7.2 | 7.2 | 31 | > 30 | > 30 | 11 | 22 | 7.4 |  |  | 
CCN1CCN(Cc2ccc(NC(=O)c3ccc(C)c(/C=C/c4cnc5[nH]ccc5c4Cl)c3)cc2C(F)(F)F)CC1 [HG-6-63-01, (E)-3-(2-(4-chloro-1H-pyrrolo[2,3-b]pyridin-5-yl)vinyl)-N-(4-((4-ethylpiperazin-1-yl)methyl)-3-(trifluoromethyl)phenyl)-4-methylbenzamide] | > 30 | > 30 | 0.35 | 1.3 | 6.8 | 1.6 | 27 | > 30 | 1.6 | > 30 | > 30 |  |  | 
CCN1CCN(Cc2ccc(NC(=O)c3ccc(C)c(C#Cc4cccnc4)c3)cc2C(F)(F)F)CC1 [XMD15-44] | 8.4 | > 30 |  |  | 8.2 | > 30 | > 30 | > 30 | 2.7 |  | 8.4 | 70 | 0.05 | 55
